In article PMC5770468, “Cardiac glycoside/aglycones inhibit HIV-1 gene expression by a mechanism requiring MEK1/2-ERK1/2 signaling” (Scientific Reports, 2018):

System: HIV-1 gene expression
Test: HIV-1 gene expression in CD4+ T-cell line 24ST1NLESG, p24CA ELISA
Assay type: cell-based, HIV-1 (pNL4-3)
Conditions: PMA induced, 24 h, p24CA ELISA of supernatants
Description: Drug/compounds were tested for effects on HIV-1 gene expression using inducible Tet-ON HIV-1 cell lines [HeLa rtTA-HIV-ΔMls or rtTA-HIV(Gag-GFP)] containing a HIV-1 (LAI) provirus activatable by Dox or tetracycline transactivator (tTA)[69]. The rtTA-HIV-ΔMls provirus was modified and used as previously reported[9]–[11],[70]. The rtTA-HIV(Gag-GFP) provirus was generated by deletion of the PR and RT coding regions within pol and insertion of GFP to the 3′ of gag, creating GFP fused to the C-terminal of Gag. After 4 h of drug/compound treatment, HIV-1 gene expression was activated with Dox (2 μg/mL) or tTA (described below). Equal concentrations of DMSO were present in each experiment. After ~20 h, cells and media were harvested to monitor the effects of drug/compound treatments as described below. HIV-1 gene expression was quantified via p24^CA ELISA or monitoring Gag-GFP fluorescence in cells as described below. In parallel, cell viability of treatments were assessed by XTT assay (Sigma-Aldrich, #TOX2). […]
treatment of 24ST1NLESG cells (n ≥ 4, mean, s.e.m.). […] Cell lysates were analyzed by western blot with antibodies specific for (c) HIV-1 structural protein, Gag, and (d) viral regulatory factor, Tat. […]

In the case of C[C@H]1O[C@@H](O[C@H]2[C@@H](O)C[C@H](O[C@H]3[C@@H](O)C[C@H](O[C@H]4CC[C@@]5(C)[C@H](CC[C@@H]6[C@@H]5CC[C@]5(C)[C@@H](C7=CC(=O)OC7)CC[C@]65O)C4)O[C@@H]3C)O[C@@H]2C)C[C@H](O)[C@@H]1O [Digitoxin], the “HIV-1 gene expression in 24ST1NLESG cells” value is reported as “Dose-dependent inhibition”.
